From ChEMBL document CHEMBL3045247, “GUANIDINES: FROM MOLECULE TO PRIMATE” (2004)

Columns and labels:
Parameters in all cases: scale not given: the % may be the effect or the level left
[1] = tested on: Papio ursinus; assay: Cardioprotective activity in Papio ursinus (baboon) ischaemic reperfusion injury model assessed as reduction of diastolic blood pressure at 1 mg/kg, iv after 6 min; assay type: functional, Artery
[2] = tested on: Papio ursinus; assay: Cardioprotective activity in Papio ursinus (baboon) ischaemic reperfusion injury model assessed as reduction of heart rate at 2 mg/kg, iv after 4 min relative to control; assay type: functional
[3] = tested on: Papio ursinus; assay: Cardioprotective activity in Papio ursinus (baboon) ischaemic reperfusion injury model assessed as reduction of heart rate at 1 mg/kg, iv after 20 min relative to control; assay type: functional
[4] = tested on: Papio ursinus; assay: Cardioprotective activity in Papio ursinus (baboon) ischaemic reperfusion injury model assessed as reduction of heart rate at 2 mg/kg, iv after 2 min relative to control; assay type: functional
[5] = tested on: Papio ursinus; assay: Cardioprotective activity in Papio ursinus (baboon) ischaemic reperfusion injury model assessed as reduction of heart rate at 2 mg/kg, iv after 20 min relative to control; assay type: functional
[6] = tested on: Papio ursinus; assay: Cardioprotective activity in Papio ursinus (baboon) ischaemic reperfusion injury model assessed as reduction of diastolic blood pressure at 2 mg/kg, iv after 10 min; assay type: functional, Artery
[7] = tested on: Papio ursinus; assay: Cardioprotective activity in Papio ursinus (baboon) ischaemic reperfusion injury model assessed as reduction of heart rate at 2 mg/kg, iv after 15 min relative to control; assay type: functional
[8] = tested on: Papio ursinus; assay: Cardioprotective activity in Papio ursinus (baboon) ischaemic reperfusion injury model assessed as reduction of systolic blood pressure at 2 mg/kg, iv after 15 min; assay type: functional, Artery
[9] = tested on: Papio ursinus; assay: Cardioprotective activity in Papio ursinus (baboon) ischaemic reperfusion injury model assessed as reduction of diastolic blood pressure at 2 mg/kg, iv after 2 min; assay type: functional, Artery
[10] = tested on: Papio ursinus; assay: Cardioprotective activity in Papio ursinus (baboon) ischaemic reperfusion injury model assessed as reduction of systolic blood pressure at 1 mg/kg, iv after 6 min; assay type: functional, Artery
[11] = tested on: Papio ursinus; assay: Cardioprotective activity in Papio ursinus (baboon) ischaemic reperfusion injury model assessed as reduction of heart rate at 1 mg/kg, iv after 10 min relative to control; assay type: functional
[12] = tested on: Papio ursinus; assay: Cardioprotective activity in Papio ursinus (baboon) ischaemic reperfusion injury model assessed as reduction of systolic blood pressure at 2 mg/kg, iv after 4 min; assay type: functional, Artery
[13] = tested on: Papio ursinus; assay: Cardioprotective activity in Papio ursinus (baboon) ischaemic reperfusion injury model assessed as reduction of systolic blood pressure at 1 mg/kg, iv after 20 min; assay type: functional, Artery
[14] = tested on: Papio ursinus; assay: Cardioprotective activity in Papio ursinus (baboon) ischaemic reperfusion injury model assessed as reduction of diastolic blood pressure at 2 mg/kg, iv after 20 min; assay type: functional, Artery
[15] = tested on: Papio ursinus; assay: Cardioprotective activity in Papio ursinus (baboon) ischaemic reperfusion injury model assessed as reduction of diastolic blood pressure at 1 mg/kg, iv after 2 min; assay type: functional, Artery
[16] = tested on: Papio ursinus; assay: Cardioprotective activity in Papio ursinus (baboon) ischaemic reperfusion injury model assessed as reduction of systolic blood pressure at 1 mg/kg, iv after 10 min; assay type: functional, Artery
[17] = tested on: Papio ursinus; assay: Cardioprotective activity in Papio ursinus (baboon) ischaemic reperfusion injury model assessed as reduction of systolic blood pressure at 1 mg/kg, iv after 15 min; assay type: functional, Artery
[18] = tested on: Papio ursinus; assay: Cardioprotective activity in Papio ursinus (baboon) ischaemic reperfusion injury model assessed as reduction of systolic blood pressure at 2 mg/kg, iv after 20 min; assay type: functional, Artery
[19] = tested on: Papio ursinus; assay: Cardioprotective activity in Papio ursinus (baboon) ischaemic reperfusion injury model assessed as reduction of heart rate at 2 mg/kg, iv after 25 min relative to control; assay type: functional
[20] = tested on: Papio ursinus; assay: Cardioprotective activity in Papio ursinus (baboon) ischaemic reperfusion injury model assessed as reduction of systolic blood pressure at 2 mg/kg, iv after 10 min; assay type: functional, Artery
[21] = tested on: Papio ursinus; assay: Cardioprotective activity in Papio ursinus (baboon) ischaemic reperfusion injury model assessed as reduction of diastolic blood pressure at 2 mg/kg, iv after 4 min; assay type: functional, Artery
[22] = tested on: Papio ursinus; assay: Cardioprotective activity in Papio ursinus (baboon) ischaemic reperfusion injury model assessed as reduction of systolic blood pressure at 1 mg/kg, iv after 25 min; assay type: functional, Artery
[23] = tested on: Papio ursinus; assay: Cardioprotective activity in Papio ursinus (baboon) ischaemic reperfusion injury model assessed as reduction of systolic blood pressure at 1 mg/kg, iv after 2 min; assay type: functional, Artery
[24] = tested on: Papio ursinus; assay: Cardioprotective activity in Papio ursinus (baboon) ischaemic reperfusion injury model assessed as reduction of systolic blood pressure at 2 mg/kg, iv after 2 min; assay type: functional, Artery
[25] = tested on: Papio ursinus; assay: Cardioprotective activity in Papio ursinus (baboon) ischaemic reperfusion injury model assessed as reduction of diastolic blood pressure at 1 mg/kg, iv after 4 min; assay type: functional, Artery
[26] = tested on: Papio ursinus; assay: Cardioprotective activity in Papio ursinus (baboon) ischaemic reperfusion injury model assessed as reduction of heart rate at 1 mg/kg, iv after 6 min relative to control; assay type: functional
[27] = tested on: Papio ursinus; assay: Cardioprotective activity in Papio ursinus (baboon) ischaemic reperfusion injury model assessed as reduction of heart rate at 2 mg/kg, iv after 10 min relative to control; assay type: functional
[28] = tested on: Papio ursinus; assay: Cardioprotective activity in Papio ursinus (baboon) ischaemic reperfusion injury model assessed as reduction of systolic blood pressure at 2 mg/kg, iv after 25 min; assay type: functional, Artery
[29] = tested on: Papio ursinus; assay: Cardioprotective activity in Papio ursinus (baboon) ischaemic reperfusion injury model assessed as reduction of diastolic blood pressure at 2 mg/kg, iv after 6 min; assay type: functional, Artery
[30] = tested on: Papio ursinus; assay: Cardioprotective activity in Papio ursinus (baboon) ischaemic reperfusion injury model assessed as reduction of diastolic blood pressure at 1 mg/kg, iv after 20 min; assay type: functional, Artery
[31] = tested on: Papio ursinus; assay: Cardioprotective activity in Papio ursinus (baboon) ischaemic reperfusion injury model assessed as reduction of heart rate at 1 mg/kg, iv after 4 min relative to control; assay type: functional
[32] = tested on: Papio ursinus; assay: Cardioprotective activity in Papio ursinus (baboon) ischaemic reperfusion injury model assessed as reduction of diastolic blood pressure at 2 mg/kg, iv after 15 min; assay type: functional, Artery
[33] = tested on: Papio ursinus; assay: Cardioprotective activity in Papio ursinus (baboon) ischaemic reperfusion injury model assessed as reduction of diastolic blood pressure at 1 mg/kg, iv after 25 min; assay type: functional, Artery
[34] = tested on: Papio ursinus; assay: Cardioprotective activity in Papio ursinus (baboon) ischaemic reperfusion injury model assessed as reduction of diastolic blood pressure at 1 mg/kg, iv after 10 min; assay type: functional, Artery
[35] = tested on: Papio ursinus; assay: Cardioprotective activity in Papio ursinus (baboon) ischaemic reperfusion injury model assessed as reduction of systolic blood pressure at 2 mg/kg, iv after 6 min; assay type: functional, Artery
[36] = tested on: Papio ursinus; assay: Cardioprotective activity in Papio ursinus (baboon) ischaemic reperfusion injury model assessed as reduction of heart rate at 1 mg/kg, iv after 2 min relative to control; assay type: functional
[37] = tested on: Papio ursinus; assay: Cardioprotective activity in Papio ursinus (baboon) ischaemic reperfusion injury model assessed as reduction of systolic blood pressure at 1 mg/kg, iv after 4 min; assay type: functional, Artery
[38] = tested on: Papio ursinus; assay: Cardioprotective activity in Papio ursinus (baboon) ischaemic reperfusion injury model assessed as reduction of heart rate at 2 mg/kg, iv after 6 min relative to control; assay type: functional
[39] = tested on: Papio ursinus; assay: Cardioprotective activity in Papio ursinus (baboon) ischaemic reperfusion injury model assessed as reduction of heart rate at 1 mg/kg, iv after 25 min relative to control; assay type: functional
[40] = tested on: Papio ursinus; assay: Cardioprotective activity in Papio ursinus (baboon) ischaemic reperfusion injury model assessed as reduction of diastolic blood pressure at 1 mg/kg, iv after 15 min; assay type: functional, Artery
[41] = tested on: Papio ursinus; assay: Cardioprotective activity in Papio ursinus (baboon) ischaemic reperfusion injury model assessed as reduction of heart rate at 1 mg/kg, iv after 15 min relative to control; assay type: functional
[42] = tested on: Papio ursinus; assay: Cardioprotective activity in Papio ursinus (baboon) ischaemic reperfusion injury model assessed as reduction of diastolic blood pressure at 2 mg/kg, iv after 25 min; assay type: functional, Artery

## COc1ccc(/C=N/NC(=N)N)c(Cl)c1OC
[1]
  Activity: 3.8%
[2]
  Activity: 17.1%
[3]
  Activity: 15.6%
[4]
  Activity: 12.95%
[5]
  Activity: 19.52%
[6]
  Activity: 1.02%
[7]
  Activity: 19.68%
[8]
  Activity: 6.84%
[9]
  Activity: 10.1%
[10]
  Activity: 0.26%
[11]
  Activity: 15.96%
[12]
  Activity: 3.1%
[13]
  Activity: 10.56%
[14]
  Activity: 4.9%
[15]
  Activity: 0.02%
[16]
  Activity: 3.62%
[17]
  Activity: 9.36%
[18]
  Activity: 8.48%
[19]
  Activity: 27.74%
[20]
  Activity: 7.45%
[21]
  Activity: 4.24%
[22]
  Activity: 16.22%
[23]
  Activity: 0.02%
[24]
  Activity: 5.24%
[25]
  Activity: 2.67%
[26]
  Activity: 14.6%
[27]
  Activity: 18.88%
[28]
  Activity: 9.54%
[29]
  Activity: 1.78%
[30]
  Activity: 31.36%
[31]
  Activity: 10.77%
[32]
  Activity: 2.2%
[33]
  Activity: 20.31%
[34]
  Activity: 7.58%
[35]
  Activity: 5.72%
[36]
  Activity: 5.33%
[37]
  Activity: 0.3%
[38]
  Activity: 18.96%
[39]
  Activity: 18.28%
[40]
  Activity: 15.16%
[41]
  Activity: 15.47%
[42]
  Activity: 2.78%
